The record followed here is PubChem BioAssay AID1963846 (Molecular Pharmacology Branch, DTP, NCI, 2024).

This experiment concerns 454973-116-R2-J3-PDC complex spheroid viability. Put plainly: Anticancer human tumor 454973-116-R2-J3-PDC patient-derived pancreatic carcinoma cell line growth inhibition [POLQ]. As to conditions: for viability, T/C: stronger effect = lower value. On the procedure:
Multicellular complex tumor spheroid response to Polymerase (POL) inhibitors (novobiocin, ART-558, RP6685) in combination with a variety of drugs and investigational agents in selected tumor cell lines
The POL inhibitors (novobiocin, ART-558, and RP6685) were evaluated both individually and in combination with standard of care and investigational anticancer small molecules within a complex spheroid model of solid tumors. . Complex spheroids include a stromal component modeled by human endothelial cells (HUVEC) and fibroblasts modeled by human mesenchymal stem cells (MSCs). The concentration ranges selected for each drug and investigational agent were based upon clinically achievable concentrations if the clinical Cmax of the agent was known.
Compounds. The drugs and investigational agents: novobiocin (NSC847541), ART-558 (NSC835418), RP-6685 (NSC848927), peposertib (NSC802822), ceralasertib (NSC780249), elimusertib (NSC800525), camonsertib (NSC841442), AZD-1390 (NSC803789), olaparib (NSC753686), talazoparib (NSC767125), rucaparib (NSC756644), sotorasib (NSC818433), MRTX-1133 (NSC836407), SN-38 (NSC673596), topotecan (NSC609699), epotoside (NSC141540), doxorubicin (NSC123127), gemcitabine (NSC613327), 5-fluorouracil (NSC19893), paclitaxel (NSC125973), vemurafenib (NSC761431), MSA-2 (NSC828583), SN-011 (NSC837082), adavosertib (NSC754352), prexasertib (NSC758257), carboplatin (NSC241240) and oxaliplatin (NSC266046), were obtained from the National Cancer Institute (NCI) Developmental Therapeutics Program Chemical Repository (21). The FDA-approved anticancer drug set is available from the Developmental Therapeutics Program at https://dtp.cancer.gov/organization/dscb/obtaining/. […] The stock solutions were prepared in dimethyl sulfoxide (DMSO, Sigma-Aldrich, St. Louis, MO, cat. D2650), except for the platinum compounds which were prepared in saline (Quality Biological, Gaithersburg, MD, cat. 114-055-101), at 800-fold the tested concentration and stored at -70 degrees C prior to their use. All drugs and investigational agents were tested over a range starting from a high concentration at or near the clinical Cmax and decreasing in half-log increments. If the clinical Cmax for an agent had not been determined, the highest concentration tested was 10 microM, except for SN-38, which was tested at a high concentration of 1 microM.
Cell Culture. All cells were maintained in an incubator at 37 degrees C and 5% CO2 with 95% humidity. The PDC lines were cultured according to standard operating procedures established by the NCI PDMR (https://pdmr.cancer.gov). Table 3 of the manuscript, lists the cell lines along with the number of the three cell types plated to form the mct-spheroids and media for tumor cell growth. After thawing, all PDC lines, except 997537-175-T-J1-PDC and 415267-285-R-J2-PDC, were cultured in Matrigel-coated flasks prepared with a working solution of 1X Ham's F-12 nutrient mix, without supplementation (Thermo Fisher Scientific, cat. 11765054), 100 U/mL penicillin-streptomycin (Thermo Fisher Scientific, cat. 15140122), and 2.5% Matrigel (Corning Inc., Corning, NY, cat. 354248) for the first three passages. The two PDC lines 997537-175-T-J1-PDC and 415267-285-R-J2-PDC were cultured on uncoated flasks. The 857933-349-R-J2-PDC line was cultured in 6C/Colon 1B media containing advanced DMEM/F-12 (Thermo Fisher Scientific, cat. 12634028), 10 mM HEPES (Thermo Fisher Scientific, cat. 15630080), 1X GlutaMAX supplement (Thermo Fisher Scientific, cat. 35050061), 0.1 mg/mL primocin (InvivoGen, San Diego, CA, cat. ant-pm-2), 10% defined fetal bovine serum, heat inactivated (HyClone Laboratories Inc., Logan, UT, cat. SH30070.03HI), 50% L-WRN conditioned media (ATCC, cat. CRL-3276), 1.25 mM N-Acetyl-L-cysteine (Sigma-Aldrich, cat. A9165), 10 mM nicotinamide (Sigma-Aldrich, cat. N0636), 1X B-27 supplement (Thermo Fisher Scientific, cat. 17504044), 1X N-2 supplement (Thermo Fisher Scientific, cat. […]

Where [1] appears, read: compound alone, run of 11/06/2023.

The term viability, T/C denotes the result in the treated group divided by that in the control group, in per cent. As a reminder, the IC50 is the midpoint of a concentration-inhibition curve.

Values joined by “and” are separate entries in the source; they are usually repeats but may differ in a detail not shown here. Equal values may be shown once.
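Note: spheroids exposed to drugs for seven days before measurement.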
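Throughout, for viability, T/C: percent viability relative to DMSO vehicle control wells taken as 100%.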

`COc1ccc([C@@H](O)c2cc(-c3ncnc4cc(N5CCOCC5)ccc34)c(F)cc2Cl)nn1`: the viability, T/C is 110% and 102% and 101% (compound 0.0316 µM); 102% and 96.8% and 98.7% (compound 0.1 µM); 104% and 102% and 94.2% (compound 0.316 µM); 92.9% and 83.8% and 93% (compound 1 µM); 76% and 75.2% and 80.2% (compound 3.16 µM); 52.7% and 56.2% and 53.7% (compound 10 µM). Also, the IC50 (curve of compound) was more than 10 µM.
Take `COc1cccc(OCCCN)c1-c1cc(Nc2cnc(C#N)cn2)n[nH]1`: the viability, T/C runs as follows: (compound 0.00316 µM) 99.7% (2×) and 101%; (compound 0.01 µM) 70.4% and 75.3% and 73%; (compound 0.0316 µM) 7.56% and 10.8% and 14.6%; (compound 0.1 µM) 5.87% and 6.45% and 6.4%; (compound 0.316 µM) 4.59% and 5.13% and 4.47%; (compound 1 µM) 4.4% and 5.18% and 4.15%. Moreover, the IC50 (curve of compound) is 0.0145 µM and 0.0157 µM and 0.0158 µM.
Regarding `COc1cccc2c1C(=O)c1c(O)c3c(c(O)c1C2=O)CC(O)(C(=O)CO)CC3OC1CC(N)C(O)C(C)O1` (centres undefined), the viability, T/C is, setting by setting: (compound 0.0316 µM) 73.1% and 56.1% and 76.5%; (compound 0.1 µM) 29.5% and 17.3% and 24.4%; (compound 0.316 µM) 22.2% and 15.9% and 20.4%; (compound 1 µM) 9.63% and 3.16% and 7.36%; (compound 3.16 µM) 0.59% and 0.89% and 0.65%; (compound 10 µM) 0.49% and 0.17% and 1.33%. In addition, where the note is “curve of compound”, the IC50 was 0.0626 µM and 0.0375 µM and 0.0601 µM.
With `Cc1cccc(N(C)C(=O)C2C(O)CCN2c2nc(C)cc(C(F)(F)F)c2C#N)c1` (centres undefined), the viability, T/C reads like this: (compound 0.0316 µM) 106% [middle of 13 runs]; (compound 0.1 µM) 108% [middle of 13 runs]; (compound 0.316 µM) 107% [middle of 13 runs]; (compound 1 µM) 100% [middle of 13 runs]; (compound 3.16 µM) 104% [middle of 13 runs]; (compound 10 µM) 107% [middle of 13 runs]. Moreover, the IC50 by setting is: (compound alone, run of 10/31/2023) more than 10 µM; under setting [1], more than 10 µM.
`Cn1ncnc1[C@H]1c2n[nH]c(=O)c3cc(F)cc(c23)N[C@@H]1c1ccc(F)cc1`: the viability, T/C is, setting by setting: (compound 0.000316 µM) 112% and 102% (2×); (compound 0.001 µM) 91.7% and 103% and 104%; (compound 0.00316 µM) 92.2% and 107% and 93.9%; (compound 0.01 µM) 95.1% and 86.6% and 101%; (compound 0.0316 µM) 111% and 86.4% and 102%; (compound 0.1 µM) 89.9% and 81.5% and 91.9%. Also, the IC50 (curve of compound) is more than 0.1 µM.
`Nc1ccc(C#CCN(C(=O)Cc2ncc(C(F)(F)F)cc2C(F)(F)F)c2ccc(F)cc2)nn1`: the viability, T/C reads like this: (compound 0.0316 µM) 109% [middle of 13 runs]; (compound 0.1 µM) 106% [middle of 13 runs]; (compound 0.316 µM) 107% [middle of 13 runs]; (compound 1 µM) 104% [middle of 13 runs]; (compound 3.16 µM) 105% [middle of 13 runs]; (compound 10 µM) 112% [middle of 13 runs]. In addition, under setting [1], the IC50 was more than 10 µM.
Consider `Nc1ccn(C2OC(CO)C(O)C2(F)F)c(=O)n1` (centres undefined), for which the viability, T/C (compound 0.0316 µM) is 12.9% and 5.69% and 16.6%; the viability, T/C (compound 0.1 µM) was 14.2% and 8.25% and 9.25%; the viability, T/C (compound 0.316 µM) is 11.2% and 8.63% and 12.6%; the viability, T/C (compound 1 µM) is 14.3% and 7.78% and 11.7%; the viability, T/C (compound 3.16 µM) is 12% and 9.22% and 12.5%; the viability, T/C (compound 10 µM) is 11.3% and 5.91% and 10.8%. The IC50 (curve of compound) is less than 0.0316 µM.
Turning to `O=C(c1cc(Cc2n[nH]c(=O)c3ccccc23)ccc1F)N1CCN(C(=O)C2CC2)CC1`, the viability, T/C runs as follows: (compound 0.0316 µM) 105% and 99.8% and 97.1%; (compound 0.1 µM) 96.5% and 99% and 104%; (compound 0.316 µM) 101%; (compound 1 µM) 91.2% and 104% and 90.5%; (compound 3.16 µM) 104% and 102% and 95.3%; (compound 10 µM) 60.6% and 62.5% and 54.9%. Further, the IC50 (curve of compound) was more than 10 µM.
For the molecule `O=c1[nH]cc(F)c(=O)[nH]1`, the viability, T/C (compound 0.0316 µM) is 107% and 104% and 112%; the viability, T/C (compound 0.1 µM) is 103% and 102% and 99.7%; the viability, T/C (compound 0.316 µM) is 101% and 92.2% and 104%; the viability, T/C (compound 1 µM) is 99.9% and 71.4% and 92.9%; the viability, T/C (compound 3.16 µM) is 50.8% and 29.6% and 53.3%; the viability, T/C (compound 10 µM) is 32.6% and 40.2% and 36.8%. Also, under “curve of compound”, the IC50 is 3.34 µM and 1.96 µM and 4.01 µM.
